# Data as given in US5010089A, “CCK antagonists and their use in treating gastrointestinal disorders” (Biomeasure, Inc., priority 1989, dated 1991).
# Legend:
# Pancreatic CCK Receptor = molecular target: T1, Pancreatic CCK Receptor (Rattus norvegicus, UniProt P30551); test: [125I]CCK8 binding assay, pancreatic membranes; design: species or system Sprague-Dawley rats; conditions: [125I]CCK8 0.05 nM, rat pancreas membranes, 90 min, 25° C.
# T1 construct: the pancreas or cerebral was removed and homogenized; from tissue; host or cells: pancreas of male Sprague-Dawley rats, membrane preparation
# T1 sequence (P30551 1-444): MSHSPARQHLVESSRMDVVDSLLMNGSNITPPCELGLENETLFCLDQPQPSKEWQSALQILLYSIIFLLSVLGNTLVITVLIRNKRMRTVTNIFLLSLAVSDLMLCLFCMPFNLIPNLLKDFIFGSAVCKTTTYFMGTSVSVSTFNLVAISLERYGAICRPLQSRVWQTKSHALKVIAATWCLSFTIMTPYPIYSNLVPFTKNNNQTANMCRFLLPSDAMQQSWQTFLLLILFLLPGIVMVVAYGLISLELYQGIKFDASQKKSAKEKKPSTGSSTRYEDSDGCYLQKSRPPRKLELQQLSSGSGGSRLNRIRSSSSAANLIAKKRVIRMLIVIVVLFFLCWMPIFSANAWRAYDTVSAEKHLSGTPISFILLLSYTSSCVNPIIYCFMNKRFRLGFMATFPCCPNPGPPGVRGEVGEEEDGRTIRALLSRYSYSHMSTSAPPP
# Description: Inhibition studies of CCK by specific compounds of the present invention were carried out as follows. Male, Sprague-Dawley rats were sacrificed by decapitation and the pancreas or cerebral was removed and homogenized with a Brinkman Polytron (setting 6, 15 sec). The homogenates were centrifuged twice at 39,000 g for 10 min (4° C.), with an intermediate resuspension in fresh buffer. The final pellets were resuspended in the following buffer for the [^125 I]CCK8 binding assay: 10 mM HEPES, 118 mM NaCL, 4.7 mM KCl, and 5 mM MgCL2, 1 mM EGTA, 5 mg/ml bovine serum albumin, and 0.25 mg/ml bacitracin.
# For the [^125 I]CCK8 binding assay, aliquots of the membrane preparations were added to plastic culture tubes containing 0.05 nM [^125 I]CCK8 (2200 Ci/mmol, New England Nulclear Corp ) and various concentrations of the test compounds in a final volume of 0.5 ml. The incubation period was 90 min (25° C.). The binding reaction was terminated by the addition of 4 ml of ice-cold buffer, followed by filtration through Whatman GF/B filters which had been previously soaked in 2% bovine serum albumin. Each tube and filter were then washed three times with 4-ml aliquots of ice-cold buffer. The radioactivity trapped on the filters was counted in an LKB Clini Gamma counter. Specific binding was defined as the total [^125 I]CCK8 bound minus that bound in the presence of 1 μM unlabeled CCK8.
# Table 1 sets forth data from inhibition studies of CCK by specific compounds of the present invention in which Ar, m, and A are defined as set forth below: […]
# gastric emptying = test: anti-spasmodic activity: effect on gastric emptying (charcoal meal) after CCK-8 in mice; assay type: in vivo, CF1 mice; conditions: for ED50: Mus musculus, anti-spasmodic activity
# Description: In vivo studies were made to test the therapeutic effect of α-N-(2-indolylcarbonyl) L-tryptyl-N'-phenylethylglycine (BIM-18216),α-N-(3-quinolylcarbonyl)-L-tryptyl-N'-phenylethylglycine (BIM-18225), α-N-(2-naphthylcarbonyl)-L-tryptyl-N'-phenylethylglycine (BIM-18226), and α-N-(2-indolylcarbonyl) D-tryptyl-N'-phenylethylglycine (BIM-18227). The effect of the foregoing compounds on gastric emptying was measured as the percentage of anti-spasmodic activity. Tests were carried out on female CF1 mice as follows. Mice weighing approximately 20 g were fasted overnight. Test compounds were administered in one of four ways: intraperitoneally (i.p.), subcutaneously (s.c.), intravenously (i.v.), or orally (p.o.). Test compounds administered orally were dissolved in a mixture of 75% by volume polyethylene glycol 400 NF, 15% by volume propylene glycol USP, and 10% by volume purified H2 O USP. For other methods of administration, the test compounds were dissolved in a solution of saline containing 10% DMSO (by volume) for i.v. administration; and in a solution of saline containing 10% DMSO (by volume) and 0.25% methylcellulose (by weight) for s.c. or i.p. administration. Test compounds were administered to the mice 15 minutes prior to administering CCK-8 (40 μg/kg, s.c.). The mice were fed a charcoal meal orally 5 minutes after CCK injection and the animals were sacrificed 5 minutes later. The lengths of the intestines filled with charcoal were measured and the % of anti-spasmodic activity was calculated based upon the lengths according to the following formula: [formula]
# Table 2, below, contains data on the anti-spasmodic activity of the compounds tested by oral administration.
# Table 3, below, contains data for the test compound BIM-18216 administered in each of the four different ways discussed above.
# [1] = Table 2, 125 mg/kg p.o., 15 min before CCK-8 (40 μg/kg, s.c.), 125 mg/kg
# [2] = Table 2, 125 mg/kg p.o., 15 min before CCK-8 (40 μg/kg, s.c.)
# [3] = Table 2, 100 mg/kg p.o., 15 min before CCK-8 (40 μg/kg, s.c.)
structure (smiles),measurement,setting,value
"O=C(O)CN(CCc1ccccc1)C(=O)C(Cc1c[nH]c2ccccc12)NC(=O)c1ccc2ccccc2n1 [2-quinolyl, α-N-(2 quinolylcarbonyl) L-tryptyl-N'-phenylethylglycine]",IC50,Pancreatic CCK Receptor,0.17 µM
"O=C(O)CN(CCc1ccccc1)C(=O)C(Cc1c[nH]c2ccccc12)NC(=O)c1cc2ccccc2[nH]1 [BIM-18216, α-N-(2-indolylcarbonyl) L-tryptyl-N'-phenylethylglycine]",ED50,gastric emptying; ip,5.8 mg/kg
same,ED50,gastric emptying; iv,6.6 mg/kg
same,ED50,gastric emptying; po,96.7 mg/kg
same,ED50,gastric emptying; sc,4.5 mg/kg
same,% Anti-Spasmodic Activity,gastric emptying; [1],78%
same,% Anti-Spasmodic Activity,"gastric emptying; Table 3, 1 mg/kg i.p., 15 min before CCK-8",1%
same,% Anti-Spasmodic Activity,"gastric emptying; Table 3, 1 mg/kg s.c., 15 min before CCK-8",1%
same,% Anti-Spasmodic Activity,"gastric emptying; Table 3, 5 mg/kg i.p., 15 min before CCK-8",45%
same,% Anti-Spasmodic Activity,"gastric emptying; Table 3, 5 mg/kg i.v., 15 min before CCK-8",36%
same,% Anti-Spasmodic Activity,"gastric emptying; Table 3, 5 mg/kg s.c., 15 min before CCK-8",53%
same,% Anti-Spasmodic Activity,"gastric emptying; Table 3, 10 mg/kg i.v., 15 min before CCK-8",70%
same,% Anti-Spasmodic Activity,"gastric emptying; Table 3, 10 mg/kg s.c., 15 min before CCK-8",75%
same,% Anti-Spasmodic Activity,"gastric emptying; Table 3, 25 mg/kg i.p., 15 min before CCK-8",91%
same,% Anti-Spasmodic Activity,"gastric emptying; Table 3, 25 mg/kg i.v., 15 min before CCK-8",123%
same,% Anti-Spasmodic Activity,"gastric emptying; Table 3, 25 mg/kg s.c., 15 min before CCK-8",108%
same,% Anti-Spasmodic Activity,"gastric emptying; Table 3, 50 mg/kg p.o., 15 min before CCK-8",10%
same,% Anti-Spasmodic Activity,"gastric emptying; Table 3, 50 mg/kg s.c., 15 min before CCK-8",112%
same,% Anti-Spasmodic Activity,"gastric emptying; Table 3, 75 mg/kg p.o., 15 min before CCK-8",47%
same,% Anti-Spasmodic Activity,"gastric emptying; Table 3, 100 mg/kg p.o., 15 min before CCK-8",56%
same,% Anti-Spasmodic Activity,"gastric emptying; Table 3, 125 mg/kg p.o., 15 min before CCK-8",81%
same,% Anti-Spasmodic Activity,"gastric emptying; Table 3, 250 mg/kg p.o., 15 min before CCK-8",88%
same,% Anti-Spasmodic Activity,"gastric emptying; Table 3, 500 mg/kg p.o., 15 min before CCK-8",105%
"O=C(O)CN(CCc1ccccc1)C(=O)C(Cc1c[nH]c2ccccc12)NC(=O)c1cnc2ccccc2c1 [BIM-18225, α-N-(3-quinolylcarbonyl)-L-tryptyl-N'-phenylethylglycine]",% Anti-Spasmodic Activity,gastric emptying; [2],22%
"O=C(O)CN(CCc1ccccc1)C(=O)C(Cc1c[nH]c2ccccc12)NC(=O)c1ccc2ccccc2c1 [BIM-18226, α-N-(2-naphthylcarbonyl)-L-tryptyl-N'-phenylethylglycine]",IC50,Pancreatic CCK Receptor,0.5 µM
same,% Anti-Spasmodic Activity,gastric emptying; [3],35%
same,% Anti-Spasmodic Activity,gastric emptying; [2],88%
"O=C(O)CN(CCc1ccccc1)C(=O)C(Cc1c[nH]c2ccccc12)NC(=O)c1cc2ccccc2[nH]1 [BIM-18227, α-N-(2-indolylcarbonyl) D-tryptyl-N'-phenylethylglycine]",IC50,Pancreatic CCK Receptor,0.03 µM
same,% Anti-Spasmodic Activity,gastric emptying; [3],24%
same,% Anti-Spasmodic Activity,gastric emptying; [1],60%
